In ChEMBL document CHEMBL1201862, “PubChem BioAssay data set” (2004):
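Where inhibition never reached the appropriate level, the endpoint shown equals the highest concentration tested. Otherwise, values were interpolated linearly from a five-concentration, 48-hour dose response in 96-well plates. GI50: concentration for 50% inhibition of growth.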 The source made the active and inactive calls. Cut-off read from the data, not from the text of the source: active = GI50 up to about 1.1 µM and inactive = higher.

Columns and labels:
Assay in all cases: NCI-60 cell line screen, 48 h
CCRF-CEM = system: CCRF-CEM
HCT-116 = system: HCT-116
IGROV-1 = system: IGROV-1
KM12 = system: KM12
M14 = system: M14
Malme-3M = system: Malme-3M
SF-268 = system: SF-268
SF-295 = system: SF-295
SF-539 = system: SF-539
SK-MEL-28 = system: SK-MEL-28
SK-MEL-2 = system: SK-MEL-2
SNB-19 = system: SNB-19
786-0 = system: 786-0
HT-29 = system: HT-29
OVCAR-3 = system: OVCAR-3
UACC-62 = system: UACC-62

Measured: GI50

O=C(O)C(Cl)(Cl)Cl
inactive: CCRF-CEM > 100 µM | HCT-116 > 100 µM | IGROV-1 > 100 µM | KM12 > 100 µM | M14 > 100 µM | Malme-3M > 100 µM | SF-268 > 100 µM | SF-295 > 100 µM | SF-539 > 100 µM | SK-MEL-28 > 100 µM | SK-MEL-2 > 100 µM | SNB-19 > 100 µM

COC(=O)C1=C(OC)c2cc3c(cc2C(c2cc(OC)c(OC)c(OC)c2)C1C(=O)OC)OCO3 (stereo not drawn)
inactive: 786-0 > 100 µM | CCRF-CEM > 100 µM | HCT-116 > 100 µM | HT-29 > 100 µM | IGROV-1 > 100 µM | KM12 > 100 µM | M14 > 100 µM | Malme-3M > 100 µM | OVCAR-3 > 100 µM | SF-268 > 100 µM | SF-295 59.7 µM | SF-539 > 100 µM | SK-MEL-28 > 100 µM | SK-MEL-2 > 100 µM | UACC-62 > 100 µM

COc1cc(Cc2cc(OC)c(OC)c(OC)c2)ccc1O
inactive: 786-0 29.7 µM | CCRF-CEM 6.32 µM | HCT-116 5.19 µM | HT-29 34.8 µM | IGROV-1 > 100 µM | KM12 6.62 µM | M14 5 µM | Malme-3M 2.41 µM | OVCAR-3 9.23 µM | SF-268 36.3 µM | SF-295 4.57 µM | SF-539 9.31 µM | SK-MEL-28 39.7 µM | SK-MEL-2 3.11 µM | SNB-19 23.9 µM | UACC-62 9.95 µM

S=C(N/N=C/c1ccccc1)NC12CC3CC(CC(C3)C1)C2
inactive: 786-0 56.1 µM | CCRF-CEM 19.6 µM | HCT-116 29.5 µM | HT-29 5.31 µM | IGROV-1 > 100 µM | KM12 36.2 µM | M14 46.6 µM | OVCAR-3 27.2 µM | SF-268 31.9 µM | SF-295 41 µM | SF-539 12.4 µM | SK-MEL-28 59.3 µM | SK-MEL-2 40 µM | SNB-19 > 100 µM | UACC-62 27.5 µM

O=c1cccccc1NCCCCCCNc1cccccc1=O
inactive: 786-0 > 100 µM | CCRF-CEM > 100 µM | HCT-116 > 100 µM | HT-29 > 100 µM | IGROV-1 > 100 µM | KM12 > 100 µM | M14 > 100 µM | Malme-3M > 100 µM | OVCAR-3 > 100 µM | SF-268 > 100 µM | SF-295 > 100 µM | SK-MEL-28 > 100 µM | SK-MEL-2 > 100 µM | SNB-19 > 100 µM | UACC-62 > 100 µM

CC1S(=O)(=O)OCCOS1(=O)=O
inactive: 786-0 46.2 µM | CCRF-CEM 50 µM | HCT-116 > 95.7 µM | HT-29 > 100 µM | IGROV-1 > 100 µM | KM12 > 100 µM | M14 > 100 µM | Malme-3M > 100 µM | OVCAR-3 74 µM | SF-268 32.1 µM | SF-295 50.4 µM | SF-539 46.6 µM | SK-MEL-28 > 100 µM | SK-MEL-2 > 100 µM | SNB-19 39.7 µM | UACC-62 22.6 µM

C/N=c1\ss/c(=N\C(=S)N(C)C)n1-c1ccccc1
inactive: 786-0 38.3 µM | CCRF-CEM > 100 µM | HCT-116 > 72.8 µM | HT-29 > 31.6 µM | IGROV-1 97.7 µM | KM12 > 100 µM | M14 > 100 µM | Malme-3M > 100 µM | OVCAR-3 > 100 µM | SF-268 34 µM | SF-295 > 75.5 µM | SF-539 31 µM | SK-MEL-28 > 100 µM | SK-MEL-2 > 64 µM | SNB-19 > 52.7 µM | UACC-62 > 22.9 µM

CCOC(=O)C1=C(NC)OCC1=O
inactive: 786-0 > 100 µM | CCRF-CEM > 100 µM | HCT-116 > 100 µM | HT-29 > 100 µM | IGROV-1 > 100 µM | KM12 > 100 µM | M14 > 100 µM | Malme-3M > 100 µM | OVCAR-3 > 100 µM | SF-268 > 100 µM | SF-295 > 100 µM | SF-539 > 100 µM | SK-MEL-28 > 100 µM | SK-MEL-2 > 100 µM | SNB-19 > 100 µM | UACC-62 > 100 µM

O=C(Cc1ccccc1)NN1C(=O)C(Cl)C1c1ccc(Cl)cc1 (stereo not drawn)
inactive: 786-0 > 100 µM | CCRF-CEM > 100 µM | HCT-116 > 100 µM | HT-29 > 100 µM | IGROV-1 > 100 µM | KM12 > 100 µM | M14 > 100 µM | Malme-3M > 100 µM | OVCAR-3 > 100 µM | SF-268 > 100 µM | SF-295 > 100 µM | SK-MEL-28 > 100 µM | SK-MEL-2 > 100 µM | SNB-19 69.8 µM | UACC-62 > 100 µM

CC(=O)OCCOCNC(=S)N/N=C(\C)c1cnc2ccccc2n1
inactive: 786-0 39.7 µM | CCRF-CEM 7.46 µM | HCT-116 25.4 µM | HT-29 29.6 µM | IGROV-1 42 µM | KM12 46.5 µM | M14 36 µM | Malme-3M 40.6 µM | OVCAR-3 16.8 µM | SF-268 10.4 µM | SF-295 57.9 µM | SF-539 55.8 µM | SK-MEL-28 43.6 µM | SK-MEL-2 33.3 µM | SNB-19 99.3 µM | UACC-62 14.2 µM

O=c1cc[nH]c2c1ccc1ncccc12
inactive: 786-0 > 100 µM | CCRF-CEM > 100 µM | HCT-116 > 100 µM | HT-29 > 100 µM | IGROV-1 > 100 µM | KM12 > 100 µM | M14 > 100 µM | Malme-3M > 100 µM | OVCAR-3 > 100 µM | SF-268 > 100 µM | SF-539 > 100 µM | SK-MEL-28 > 100 µM | SK-MEL-2 > 100 µM | SNB-19 > 100 µM | UACC-62 > 100 µM

O=C(CC(=O)c1ccccc1)CC(O)(c1ccccc1)c1ccccc1
inactive: CCRF-CEM 3.37 µM | HCT-116 4.59 µM | HT-29 10.4 µM | KM12 7.76 µM | M14 3.61 µM | Malme-3M 11 µM | OVCAR-3 4.84 µM | SF-268 6.9 µM | SF-295 4.42 µM | SK-MEL-28 13.1 µM | SK-MEL-2 9.95 µM | SNB-19 3.92 µM | UACC-62 3.21 µM

CC(C)Cc1cccc(C(C)C)c1NC(=O)CCC(=O)N/N=C1\C(=N/NC(=O)CCC(=O)Nc2c(C(C)C)cccc2C(C)C)C(c2ccc3c(c2)OCO3)Oc2ccccc21 (stereo not drawn)
inactive: CCRF-CEM 28.8 µM | HCT-116 61.2 µM | HT-29 43.8 µM | IGROV-1 29.5 µM | KM12 > 100 µM | M14 > 100 µM | SF-268 67.8 µM | SF-295 48 µM | SF-539 97.7 µM | SK-MEL-28 > 100 µM | SK-MEL-2 > 100 µM | SNB-19 91 µM | UACC-62 78.3 µM
